Experiment [1] deals with IL-17A-induced G-CSF production in human normal keratinocyte (NHK). Description: NHK Assay: IL-17A-induced G-CSF production in human normal keratinocytes. Conditions: 24 h, adult normal human keratinocytes, IL-17A 5 ng/mL, simple average if tested more than once. The format is cell-based. The method, boiled down:
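Titrated compound plus recombinant human IL-17A (pre-incubated 1 h, rt) were applied to adult human keratinocytes at 5 ng/mL cytokine, 0.2% DMSO. Cultures ran 24 h at 37° C, and supernatant G-CSF was measured by HTRF to derive IC50.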

The target of experiment [2] is IL-17A(FLAG-Tagged): IL-17RA(His-Tagged) (Homo sapiens, UniProt Q16552, K93Q). Description: IL-17A(FLAG-Tagged): IL-17RA(His-Tagged) Binding Disruption Eu-HTRF Assay. Conditions: IL-17A/IL-17RA binding disruption, simple average if tested more than once. The procedure, abridged:
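IC50 comes from a one-site competition fit of the HTRF 665/620 nm ratio. Compound dilutions (2-fold, 22 points) were held 1 h rt with FLAG-tagged IL-17A dimer, then His-tagged IL-17RA plus Eu-cryptate anti-FLAG and D2 anti-His antibodies were added for 2 h rt.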
In general terms: In TR-FRET formats the signal depends on donor and acceptor labels being close together.

Sequence of UniProt Q16552 (Q16552 with tags, fused parts or gaps K93Q): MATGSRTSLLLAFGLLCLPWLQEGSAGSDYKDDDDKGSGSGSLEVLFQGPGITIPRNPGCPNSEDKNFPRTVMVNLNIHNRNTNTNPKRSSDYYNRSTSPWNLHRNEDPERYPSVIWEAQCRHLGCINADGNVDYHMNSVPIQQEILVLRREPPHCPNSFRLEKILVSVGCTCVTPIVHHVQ

By IC50 is commonly meant the midpoint of a concentration-inhibition curve. Lower therefore signals greater potency. For `O=C(CCC(F)(F)F)N[C@@H](c1cnn2cc([C@@H](NC(=O)c3cnn(CCN4CC(F)(F)C4)n3)C3CCC(F)(F)CC3)nc2c1)C1CC1` [Example 485, N—[(S)-[7-[(R)-Cyclopropyl-(4,4,4-trifluorobutanamido)methyl]imidazo[1,2-b]pyridazin-2-yl]-(4,4-difluorocyclohexyl)methyl]-2-[2-(3,3-difluoroazetidin-1-yl)ethyl]triazole-4-carboxamide], the concentration for half-maximal inhibition (IC50) came out at 310 nM in experiment [1] (Homo sapiens, Keratinocyte) and 920 nM in experiment [2].

Take `Cc1nonc1C(=O)N[C@H](c1cn2ncc([C@H](NC(=O)CO[C@H](C)C(F)(F)F)C3CC3)cc2n1)C1CCC(F)(F)CC1` [Example 357, N—((S)-(7-((R)-Cyclopropyl(2-(((R)-1,1,1-trifluoropropan-2-yl)oxy)acetamido)methyl)imidazo[1,2-b]pyridazin-2-yl)(4,4-difluorocyclohexyl)methyl)-4-methyl-1,2,5-oxadiazole-3-carboxamide]: the IC50 in experiment [1] (Homo sapiens, Keratinocyte) is 2500 nM; in experiment [2], 950 nM.

For `O=C(CCC(F)(F)F)N[C@@H](c1cnn2cc([C@@H](NC(=O)[C@H]3C[C@@H]3F)C3CCC(F)(F)CC3)nc2c1)C1CC1` [Example 98, (1R,2S)—N—((S)-(7-((R)-Cyclopropyl(4,4,4-trifluorobutanamido)methyl)imidazo[1,2-b]pyridazin-2-yl)(4,4-difluorocyclohexyl)methyl)-2-fluorocyclopropane-1-carboxamide], the IC50 in experiment [1] (Homo sapiens, Keratinocyte) stood at 2300 nM; in experiment [2], 770 nM.

As to `COc1conc1C(=O)N[C@H](c1cn2ncc([C@H](NC(=O)CCC(F)(F)F)C3CC3)cc2n1)C1CCC(F)(F)CC1` [Example 372, N—((S)-(7-((R)-Cyclopropyl(4,4,4-trifluorobutanamido)methyl)imidazo[1,2-b]pyridazin-2-yl)(4,4-difluorocyclohexyl)methyl)-4-methoxyisoxazole-3-carboxamide], the 50% inhibitory concentration (IC50) in experiment [1] (Homo sapiens, Keratinocyte) was found to be 740 nM; in experiment [2] it was 120 nM.

For `O=C(CCC(F)(F)F)N[C@@H](c1cnn2cc([C@@H](NC(=O)c3cnnn3CCOC(F)F)C3CCC(F)(F)CC3)nc2c1)C1CC1` [Example 34, N—((S)-(7-((R)-Cyclopropyl(4,4,4-trifluorobutanamido)methyl)imidazo[1,2-b]pyridazin-2-yl)(4,4-difluorocyclohexyl)methyl)-1-(2-(difluoromethoxy)ethyl)-1H-1,2,3-triazole-5-carboxamide], the IC50 in experiment [1] (Homo sapiens, Keratinocyte) was 64 nM; in experiment [2], 180 nM.

As to `Cc1nonc1C(=O)N[C@H](c1cn2ncc([C@H](NC(=O)C[C@H]3CC3(F)F)C3CC3)cc2n1)C1CCC(F)(F)CC1` (relative stereo) [Example 255], the IC50 came to 600 nM in experiment [1] (Homo sapiens, Keratinocyte) and 170 nM in experiment [2].

For `CC(C)c1nonc1C(=O)N[C@H](c1cn2ncc([C@H](NC(=O)CCC(F)(F)F)C3CC3)cc2n1)C1CCC(F)(F)CC1` [Example 379, N—((S)-(7-((R)-Cyclopropyl(4,4,4-trifluorobutanamido)methyl)imidazo[1,2-b]pyridazin-2-yl)(4,4-difluorocyclohexyl)methyl)-4-isopropyl-1,2,5-oxadiazole-3-carboxamide], the IC50 came to 30 nM in experiment [1] (Homo sapiens, Keratinocyte) and 17 nM in experiment [2].

For the compound `O=C(CCC(F)(F)F)N[C@@H](c1cnn2cc([C@@H](NC(=O)c3cccc(OCC(F)F)n3)C3CCC(F)(F)CC3)nc2c1)C1CC1` [Example 201, N—((S)-(7-((R)-Cyclopropyl(4,4,4-trifluorobutanamido)methyl)imidazo[1,2-b]pyridazin-2-yl)(4,4-difluorocyclohexyl)methyl)-6-(2,2-difluoroethoxy)picolinamide], the half-inhibitory concentration (IC50) in experiment [1] (Homo sapiens, Keratinocyte) amounted to 2200 nM; in experiment [2], 470 nM.

Turning to `Cc1nonc1C(=O)N[C@H](c1cn2ncc(C(NC(=O)CC3CC(F)(F)C3)C3CCC3)cc2n1)C1CCC(F)(F)CC1` (single isomer, unassigned) [Example 493, N—((S)-(7-((R*)-Cyclobutyl(2-(3,3-difluorocyclobutyl)acetamido)methyl)imidazo[1,2-b]pyridazin-2-yl)(4,4-difluorocyclohexyl)methyl)-4-methyl-1,2,5-oxadiazole-3-carboxamide], the figures for the IC50 in experiment [1] and in experiment [2] were 120 nM and 79 nM, respectively.

Regarding `CC(C)n1nccc1C(=O)N[C@H](c1cn2ncc([C@H](NC(=O)CC3CC(F)(F)C3)C3CC3)cc2n1)[C@@H]1C[C@@H]2[C@H](C1)C2(F)F` (relative stereo) [Example 404, N—((S*)-(7-((R)-Cyclopropyl(2-(3,3-difluorocyclobutyl)acetamido)methyl)imidazo[1,2-b]pyridazin-2-yl)((1R,3s,5S)-6,6-difluorobicyclo[3.1.0]hexan-3-yl)methyl)-1-isopropyl-1H-pyrazole-5-carboxamide], the half-inhibitory concentration (IC50) in experiment [1] (Homo sapiens, Keratinocyte) came to 58 nM; in experiment [2], 180 nM.

For `[2H]C([2H])([2H])n1nccc1C(=O)N[C@H](c1cn2ncc([C@H](NC(=O)C[C@H](C)C(F)(F)F)C3CCC3)cc2n1)C1CCC(F)(F)CC1` (relative stereo) [Example 503, N—((S)-(7-((R*)-Cyclobutyl((S*)-4,4,4-trifluoro-3-methylbutanamido)methyl)imidazo[1,2-]pyridazin-2-yl)(4,4-difluorocyclohexyl)methyl)-1-(methyl-d3)-1H-pyrazole-5-carboxamide], the IC50 in experiment [1] (Homo sapiens, Keratinocyte) worked out at 130 nM; in experiment [2] it was 100 nM.

In the case of `O=C(CCC(F)(F)F)N[C@@H](c1cnn2cc([C@@H](NC(=O)c3conc3C(F)(F)F)C3CCC(F)(F)CC3)nc2c1)C1CC1` [Example 101, N—[(S)-[7-[(R)-Cyclopropyl-(4,4,4-trifluorobutanoylamino)methyl]imidazo[1,2-b]pyridazin-2-yl]-(4,4-difluorocyclohexyl)methyl]-3-(trifluoromethyl)isoxazole-4-carboxamide], the IC50 in experiment [1] (Homo sapiens, Keratinocyte) came to 160 nM; in experiment [2], 39 nM.

Take `O=C(CCC(F)(F)F)N[C@@H](c1cnn2cc([C@@H](NC(=O)c3cnn(CC4CC4(F)F)n3)C3CCC(F)(F)CC3)nc2c1)C1CC1` (stereo partly drawn) [Example 93, N—((S)-(7-((R)-Cyclopropyl(4,4,4-trifluorobutanamido)methyl)imidazo[1,2-b]pyridazin-2-yl)(4,4-difluorocyclohexyl)methyl)-2-((2,2-difluorocyclopropyl)methyl)-2H-1,2,3-triazole-4-carboxamide]: the concentration for half-maximal inhibition (IC50) in experiment [1] (Homo sapiens, Keratinocyte) came to 280 nM; in experiment [2] it was 150 nM.

For the compound `CC(O)c1nonc1C(=O)N[C@H](c1cn2ncc([C@H](NC(=O)CC3CC(F)(F)C3)C3CC3)cc2n1)C1CCC(F)(F)CC1` (single isomer, unassigned) [Example 395, N—((S)-(7-((R)-Cyclopropyl(2-(3,3-difluorocyclobutyl)acetamido)methyl)imidazo[1,2-b]pyridazin-2-yl)(4,4-difluorocyclohexyl)methyl)-4-((R*)-1-hydroxyethyl)-1,2,5-oxadiazole-3-carboxamide], the IC50 came to 170 nM in experiment [1] (Homo sapiens, Keratinocyte) and 48 nM in experiment [2].

Consider `CC(C)c1nonc1C(=O)N[C@H](c1cn2ncc(C(NC(=O)CCC(F)(F)F)C(C)C)cc2n1)C1CCC(F)(F)CC1` (single isomer, unassigned) [Example 511, N—((S)-(4,4-Difluorocyclohexyl)(7-((S*)-2-methyl-1-(4,4,4-trifluorobutanamido)propyl)imidazo[1,2-b]pyridazin-2-yl)methyl)-4-isopropyl-1,2,5-oxadiazole-3-carboxamide], for which the IC50 in experiment [1] (Homo sapiens, Keratinocyte) is 21 nM; in experiment [2], 46 nM.

As to `CC(C)n1nccc1C(=O)N[C@H](c1cn2ncc([C@H](NC(=O)CC34CC(C3)C4)C3CC3)cc2n1)C1CCC(F)(F)CC1` [Example 248, N—((S)-(7-((R)-(2-(Cicyclo[1.1.1]pentan-1-yl)acetamido)(cyclopropyl)methyl)imidazo[1,2-b]pyridazin-2-yl)(4,4-difluorocyclohexyl)methyl)-1-isopropyl-1H-pyrazole-5-carboxamide], the IC50 was 37 nM in experiment [1] (Homo sapiens, Keratinocyte) and 49 nM in experiment [2].

In the case of `Cc1nonc1C(=O)N[C@@H](COC(C)(C)C)c1cn2ncc(C(NC(=O)CCC(F)(F)F)C3CC3)cc2n1` (single isomer, unassigned) [Example 314, N—((R)-2-(tert-Butoxy)-1-(7-((R*)-cyclopropyl(4,4,4-trifluorobutanamido)methyl)imidazo[1,2-b]pyridazin-2-yl)ethyl)-4-methyl-1,2,5-oxadiazole-3-carboxamide], the half-inhibitory concentration (IC50) in experiment [1] turned out to be 2100 nM; in experiment [2], 560 nM.

With `CC(C)c1snnc1C(=O)N[C@H](c1cn2ncc([C@H](NC(=O)CCC(F)(F)F)C3CC3)cc2n1)C1CCC(F)(F)CC1` [Example 87, N—((S)-(7-((R)-Cyclopropyl(4,4,4-trifluorobutanamido)methyl)imidazo[1,2-b]pyridazin-2-yl)(4,4-difluorocyclohexyl)methyl)-5-isopropyl-1,2,3-thiadiazole-4-carboxamide], the half-maximal inhibitory concentration (IC50) in experiment [1] (Homo sapiens, Keratinocyte) is 95 nM; in experiment [2], 33 nM.

On to `O=C(CCC(F)(F)F)N[C@@H](c1cnn2cc([C@@H](NC(=O)c3ncnn3CC(F)(F)F)C3CCC(F)(F)CC3)nc2c1)C1CC1` [Example 61, N—((S)-(7-((R)-Cyclopropyl(4,4,4-trifluorobutanamido)methyl)imidazo[1,2-b]pyridazin-2-yl)(4,4-difluorocyclohexyl)methyl)-1-(2,2,2-trifluoroethyl)-1H-1,2,4-triazole-5-carboxamide], for which the IC50 in experiment [1] (Homo sapiens, Keratinocyte) was determined as 1200 nM; in experiment [2] it was 190 nM.

The values are drawn from patent US11702422B2, “Imidazopyridazines as modulators of IL-17” (Janssen Pharmaceutica NV, priority 2020, dated 2023).
